The source of these data is patent US20230219912A1, “HALOGENATED BENZOTHIADIAZINES FOR THE TREATMENT OF CANCER” (BOARD OF REGENTS OF THE UNIVERSITY OF NEBRASKA, priority 2020, published 2023).

Data set [1] concerns MDA-MB-468 triple negative breast cancer cells. The data set is described as follows: MTS cytotoxicity assay in MDA-MB-468 triple negative breast cancer cells. The data set is classed as cell-based. The settings on record: for IC50: Homo sapiens, MDA-MB-468, 72 hours, mean ± SD n = 3; for effect on MDA-MB 468 TNBC cell viability: 10, 50 and 100 μM for 24, 48 and 72 hours, MTS. On the procedure:
The assay was performed as follows.
Derivatives were dosed at 10, 50 and 100 μM for 24, 48 and 72 hours and cell viability measured by MTS assay (FIG. 5).

For data set [2], the system named is 22Rv1 prostate cancer cells. The data set is described as follows: MTS cytotoxicity assay in 22Rv1 prostate cancer cells. Particulars: Homo sapiens; for cytotoxicity at 100 µM: 22Rv1, 48 h, read-out: reduction of 22Rv1 cell viability. On the procedure: (§1) The assay was performed as follows. To determine the cell growth inhibition ability of the synthesized compounds the (3-(4,5-dimethylthiazol-2-yl)-5-(3-carboxymethoxyphenyl)-2-(4-sulfophenyl)-2H-tetrazolium) (MTS) assay used according to the manufacturer's recommended protocol. Stock solutions of the synthesized compounds were prepared in DMSO. Cells were seeded at a density of 1×10^5 cells in 96-well plates. After 24 hours, cells were treated at the indicated concentrations of test compounds, limiting the final DMSO concentration to less than 1%. After incubation at 37° C. in an environment of 5% CO2 for 48-72 hours, 10 μL of MTS reagent (CellTiter 96© AQueous One Solution Reagent) was added to each well and incubated at the above mentioned conditions for 2-4 hr. Absorbance was recorded at 490 nm on a BioTek Synergy Mx multimode plate reader and the viability of cells were plotted as percentage of controls.

The test system of data set [3] is Mitochondrial respiratory complex II (CII). Particulars: literature, cited from earlier work.
Data set [4] concerns human embryonic kidney (HEK293) cells. In words: MTS cytotoxicity assay in HEK293 cells. It counts as cell-based. Particulars: 72 hours, mean ± SD n = 3. On the procedure:
as §1
Cytotoxicity was also evaluated by using the low tumorigenic HEK293 cells at 50 μM concentration.

Data set [5] concerns the target T1, Mitochondrial respiratory complex II (Rattus norvegicus, UniProt P21913+Q641Z9+Q6PCT8+Q920L2).
T1 construct: measured spectrophotometrically using isolated rat heart mitochondria; from tissue; host or cells: rat heart mitochondria / sub-mitochondrial particles
In words: Mitochondrial respiratory complex II inhibition assay. It counts as biochemical. The settings on record: for IC50: read-out: CII IC50; for inhibition at 100 µM: read-out: inhibition of CII. On the procedure:
The assay was performed as follows. Mitochondria were isolated either from fresh rat hearts or by differential centrifugation in sucrose-based buffer as previously described.^24 Complex II enzymatic activity was determined spectrophotometrically as the rate of succinate-driven, co-enzyme Q2-linked reduction of dichlorophenolindophenol (DCPIP).^49 Mitochondria or sub-mitochondrial particles were incubated in phosphate buffer (pH 7.4) containing 40 μM DCPIP, 1 mM KCN, 10 μM rotenone, and 50 μM co-enzyme Q2. The rate of reduction of DCPIP to DCPIPH2 was followed at […] (ε=21,000 M-1). Varying amounts of succinate and inhibitors were used to determine an IC50 value. At the end of each run thenoyltrifluoroacetone (1 mM) was added and the residual TTFA-insensitive rate subtracted.

In data set [6] the test system is VEGF-induced proliferation of HUVEC cells. The data set is described as follows: VEGF-induced HUVEC proliferation, MTT assay. It counts as cell-based, human. The settings on record: for inhibition of VEGF-induced HUVEC proliferation (in words): 20 μM; for inhibition at 20 µM: Homo sapiens, read-out: % Inhibition of Proliferation. Here is the method:
The assay was performed as follows. Vascular endothelial growth factor (VEGF, Cat #SRP3182) was purchased from Sigma. […] Stock solutions of all compounds were prepared in DMSO and were serially diluted for cell culture treatment maintaining the final DMSO concentration at less than 1%. Cell proliferation of HUVECs was evaluated through the MTT (3-[4, 5-dimethylthiazol-2-yl]-2, 5-dimethyltetrazolium bromide) colorimetric assay, as previously described.^28 The HUVECs were seeded at a density of 10,000 cells/well in 24 well plates in serum-containing medium and cultured overnight. Cells were starved with 300 μL of assay media (0.1% BSA+0.1% FBS in basal medium) for 24 h. Then, cells were treated with 500 μL of assay medium (control group), VEGF (10 ng/mL, positive control group) or VEGF along with compounds (20 μM). After 48 h of culture, 50 μL of MTT stock (5 mg/mL in PBS) was added to each well and incubated for 2 h at 37° C. to allow the formation of dark blue formazan crystals in the metabolically active cells. The medium was removed, the cells were washed with PBS (pH 7.4), and 100 μL of acidified isopropanol (0.33 mL HCl in 100 mL isopropanol) was added to each well and incubated for 5 min with thorough agitation to solubilize the formazan crystals. An equal volume of the solution was transferred to a 96-well plate and the absorbance was immediately measured using a microplate reader at a wavelength of 570 nm.

In data set [7] the test system is phosphorylated vascular endothelial growth factor receptor-2 (VEGFR2). In words: Western blot of pVEGFR2 in VEGF-treated HUVEC cells. The data set is classed as cell-based, human. Particulars: 20 μM, VEGF 10 ng/mL, 5 min. On the procedure: Cells were treated with test compounds (20 μM) along with VEGF (10 ng/mL) for 5 min. The DMSO was used as a negative control, whereas DMSO+VEGF was used as a positive control. Cells were lysed using RIPA buffer (10 mmol/L Tris-HCl, 1 mmol/L EDTA, 0.5 mmol/L EGTA, 1% Triton X-100, 0.1% sodium deoxycholate, 0.1% SDS and 140 mmol/L NaCl), supplemented with protease and phosphatase inhibitors (Halt Protease and Phosphatase Inhibitor). Cell lysates were centrifuged, and the supernatants were mixed with appropriate amount of 5×SDS loading buffer. Proteins were resolved on polyacrylamide gel and transferred onto nitrocellulose/PVDF membrane, blocked for 1 hour with 10% milk block prepared in 0.1% Tween 20 in 1×PBS (PBST), and treated with pVEGFR2 primary antibody at 4° C. overnight. The membrane was washed thrice with PBST, 5 minutes each, and treated with secondary antibody for 1 hour. The membrane was further washed three times, 5 minutes each, with PBST and developed using chemiluminescence, and the bands were analyzed using densitometry.

Setting [8] is: 100 μM, relative to DMSO control.
Where [9] appears, read: HUVEC, 48 h, 20 μM compound, VEGF 10 ng/mL, HUVEC, 48 h, relative to VEGF treated cells, mean ± SEM n = 3.

Where “and” joins values, the source holds several entries; their conditions need not be identical. Equal values may be shown once. Entries after “also recorded” stand apart in the source; their conditions may differ. Read-outs that look alike come from different tables or passages of the source.

T1 sequence (Q920L2 35-656): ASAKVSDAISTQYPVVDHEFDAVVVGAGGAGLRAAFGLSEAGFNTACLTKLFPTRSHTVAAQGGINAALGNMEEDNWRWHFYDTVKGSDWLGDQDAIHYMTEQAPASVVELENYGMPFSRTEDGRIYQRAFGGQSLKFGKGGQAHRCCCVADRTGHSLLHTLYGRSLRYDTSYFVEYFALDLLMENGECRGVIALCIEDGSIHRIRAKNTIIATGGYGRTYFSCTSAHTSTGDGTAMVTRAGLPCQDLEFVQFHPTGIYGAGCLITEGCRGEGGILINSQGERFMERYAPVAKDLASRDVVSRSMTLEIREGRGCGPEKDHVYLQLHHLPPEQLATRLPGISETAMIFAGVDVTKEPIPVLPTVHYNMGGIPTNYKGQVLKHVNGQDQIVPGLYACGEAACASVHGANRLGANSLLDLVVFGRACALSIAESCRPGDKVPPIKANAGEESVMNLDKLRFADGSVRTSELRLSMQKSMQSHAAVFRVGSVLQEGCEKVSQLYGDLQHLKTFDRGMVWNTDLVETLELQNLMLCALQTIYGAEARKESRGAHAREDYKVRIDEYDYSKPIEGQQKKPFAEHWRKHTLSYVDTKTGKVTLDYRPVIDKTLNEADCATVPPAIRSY
T1 sequence (P21913 31-282): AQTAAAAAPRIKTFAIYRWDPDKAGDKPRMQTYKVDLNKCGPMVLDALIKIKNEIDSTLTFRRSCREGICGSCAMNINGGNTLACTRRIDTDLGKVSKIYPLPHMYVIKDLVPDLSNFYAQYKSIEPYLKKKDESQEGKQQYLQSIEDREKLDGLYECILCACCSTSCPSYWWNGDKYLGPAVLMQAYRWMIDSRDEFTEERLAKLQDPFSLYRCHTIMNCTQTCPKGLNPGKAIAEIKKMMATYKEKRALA
T1 sequence (Q641Z9 1-169): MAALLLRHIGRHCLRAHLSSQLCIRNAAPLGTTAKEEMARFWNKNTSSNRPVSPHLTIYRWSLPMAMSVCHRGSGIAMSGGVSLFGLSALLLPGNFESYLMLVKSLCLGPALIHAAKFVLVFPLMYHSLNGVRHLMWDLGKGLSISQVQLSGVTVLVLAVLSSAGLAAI
T1 sequence (Q6PCT8 57-159): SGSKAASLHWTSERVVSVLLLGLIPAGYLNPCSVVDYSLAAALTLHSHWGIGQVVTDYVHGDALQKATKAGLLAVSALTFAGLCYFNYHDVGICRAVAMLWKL

Regarding `CCCCCC(=O)c1c(O)nc(OC)c(OC)c1O` [AA5-16c, reference compound], the IC50 in data set [1] was 6.71 ± 0.8 µM; in data set [3], 0.064 µM; in data set [4], 25.9 ± 2.4 µM. Also, in data set [2] (22Rv1, read-out: reduction of 22Rv1 cell viability), the cytotoxicity at 20 µM was found to be 60%. Moreover, the ligand-lipophilicity efficiency in data set [3] is on record as 5.62.
On to `COc1[nH]c(=O)c(C(=O)[C@@H](C)C[C@H](C)[C@@H](Cl)CCl)c(O)c1OC` [Atpenin A5, reference compound], for which the IC50 in data set [3] was 0.0033 µM; in data set [3] (listed as atpenin A5), 0.0036 to 0.01 µM; in data set [5] (positive control), 0.0033 µM. The “inhibition of CII” value in data set [5] (0.1 μM) is recorded as 93%.
Regarding `COc1ccc(CNC2=NS(=O)(=O)c3cc(Br)ccc3N2)cc1` [Compound 20c, 7-bromo-3-((4-methoxybenzyl)amino)-4H-benzo[e][1,2,4]thiadiazine 1,1-dioxide], in data set [1], the “effect on MDA-MB 468 TNBC cell viability” value is reported as “potent activity”. Further, in data set [2], the cytotoxicity at 100 µM is 41%. In data set [5] (setting [8]), the inhibition at 100 µM was determined as 64%. Besides, the IC50 in data set [5] (isolated rat heart mitochondria, mean ±SD of n = 4) stood at 79.7 µM.
Turning to `O=S1(=O)N=C(NCc2ccccc2)Nc2cc(Cl)ccc21` [Compound 21b, 3-(benzylamino)-6-chloro-4H-benzo[e][1,2,4]thiadiazine 1,1-dioxide], in data set [1], inhibition was half-maximal at 64.2 ± 14.2 µM (IC50). In data set [2], the cytotoxicity at 100 µM was about 35%. Moreover, in data set [5] (setting [8]), the “inhibition of CII” value was “inactive” and the inhibition at 100 µM is 0%. Moreover, in data set [4], the IC50 is 102 ± 16.1 µM. For the same molecule, the “% Inhibition of Proliferation” value in data set [6] (20 μM compound, VEGF 10 ng/mL, HUVEC, 48 h, relative to VEGF treated cells, mean ± SEM n = 3, 20 µM) was 200±12% and 125±10%. Moreover, the “inhibition of VEGF-induced HUVEC proliferation (in words)” value (“inhibition … (in words)” below) in data set [6] (VEGF 10 ng/mL) was “suppressed HUVEC proliferation; also recorded: enhanced activity”.
In the case of `O=S1(=O)N=C(NCCCc2ccccc2)Nc2cc(Cl)ccc21` [Compound 23b, 6-chloro-3-((3-phenylpropyl)amino)-4H-benzo[e][1,2,4]thiadiazine 1,1-dioxide], the IC50 was 91.9 ± 16.8 µM in data set [1] and 111 ± 7.4 µM in data set [4]. In data set [2], the cytotoxicity at 100 µM is about 35%. In data set [5] (setting [8]), the inhibition at 100 µM stood at 30%. In addition, the “inhibition … (in words)” value in data set [6] (VEGF 10 ng/mL) is reported as “suppressed HUVEC proliferation; also recorded: enhanced activity”. Further, in data set [6] (setting [9]), the inhibition at 20 µM stood at 178 ± 8%.
`O=S1(=O)N=C(NCc2ccc(F)cc2F)Nc2cc(Cl)ccc21` [Compound 29b, 6-chloro-3-((2,4-difluorobenzyl)amino)-4H-benzo[e][1,2,4]thiadiazine 1,1-dioxide]: the IC50 in data set [1] was found to be 84.6 µM; in data set [4], 129 ± 12.2 µM. Further, the “inhibition … (in words)” value in data set [6] (VEGF 10 ng/mL) was “suppressed HUVEC proliferation; also recorded: enhanced activity”. In data set [6] (setting [9]), the inhibition at 20 µM is 167 ± 14%.
Take `O=S1(=O)N=C(NCCc2c[nH]c3ccccc23)Nc2ccc(F)cc21` [Compound 36a, 3-((2-(1H-indol-3-yl)ethyl)amino)-7-fluoro-4H-benzo[e][1,2,4]thiadiazine 1,1-dioxide]: the “effect on MDA-MB 468 TNBC cell viability” value in data set [1] is “almost complete amelioration of cell viability”. The cytotoxicity at 100 µM in data set [2] stood at 30%. The inhibition at 100 µM in data set [5] (setting [8]) amounted to 17%. Besides, the “inhibition … (in words)” value in data set [6] (VEGF 10 ng/mL) is reported as “no appreciable inhibition”. Also, in data set [6] (setting [9]), the inhibition at 20 µM was 41 ± 26%.
For `O=S1(=O)N=C(NCc2ccccc2OC(F)(F)F)Nc2cc(Cl)ccc21` [Compound 43b, 6-Chloro-3-((2-(trifluoromethoxy)benzyl)amino)-4H-benzo[e][1,2,4]thiadiazine 1,1-dioxide], the IC50 worked out at 14.9 µM in data set [1] and 30.5 µM in data set [4]. Also, the “inhibition … (in words)” value in data set [6] (VEGF 10 ng/mL) is given as “suppressed HUVEC proliferation; also recorded: enhanced activity”. In addition, in data set [6] (setting [9]), the inhibition at 20 µM turned out to be 124 ± 4%.
Consider `Cc1cccc(CNC2=NS(=O)(=O)c3cc(Cl)ccc3N2)c1` [Compound 58e, 7-Chloro-3-((3-methylbenzyl)amino)-4H-benzo[e][1,2,4]thiadiazine1,1-dioxide], for which the “inhibition … (in words)” value in data set [6] (VEGF 10 ng/mL) is “suppressed HUVEC proliferation; also recorded: enhanced activity”. Also, the inhibition at 20 µM in data set [6] (HUVEC, 48 h) was determined as 145 ± 6%. Besides, the “attenuation of pVEGFR2 expression” value in data set [7] is “outperformed the parent compound”.
Consider `O=S1(=O)N=C(NCCCc2ccccc2)Nc2ccc(Cl)cc21` [Compound 60e, 7-Chloro-3-((3-phenylpropyl)amino)-4H-benzo[e][1,2,4]thiadiazine 1,1-dioxide], for which the IC50 in data set [4] was found to be 30.9 µM. Moreover, the “inhibition … (in words)” value in data set [6] (VEGF 10 ng/mL) was “suppressed HUVEC proliferation; also recorded: enhanced activity”. Besides, the inhibition at 20 µM in data set [6] (setting [9]) turned out to be 92 ± 15%.
With `O=S1(=O)N=C(NCc2ccc(F)cc2F)Nc2ccc(Cl)cc21` [Compound 63e, 7-Chloro-3-((2,4-difluorobenzyl)amino)-4H-benzo[e][1,2,4]thiadiazine 1,1-dioxide], the results for the IC50 in data set [1] and in data set [4] were 45.5 µM and 58.9 ± 13.7 µM, respectively. Further, in data set [6] (VEGF 10 ng/mL), the “inhibition … (in words)” value was “suppressed HUVEC proliferation; also recorded: enhanced activity”. The inhibition at 20 µM in data set [6] (setting [9]) turned out to be 133 ± 12%.
Consider `O=S1(=O)N=C(NCCCCc2ccccc2)Nc2ccc(Cl)cc21` [Compound 65e, 7-Chloro-3-((4-phenylbutyl)amino)-4H-benzo[e][1,2,4]thiadiazine 1,1-dioxide], for which, in data set [4], the IC50 amounted to 23.4 µM. The “inhibition … (in words)” value in data set [6] (VEGF 10 ng/mL) is listed as “suppressed HUVEC proliferation; also recorded: enhanced activity”. The inhibition at 20 µM in data set [6] (setting [9]) worked out at 116 ± 16%.
On to `O=C(O)CC(=O)O` [Malonate], for which the IC50 in data set [3] was 40 µM.
In the case of `CNC(=O)c1cc(Oc2ccc(NC(=O)Nc3ccc(Cl)c(C(F)(F)F)c3)cc2)ccn1` [Sorafenib, reference compound], the figures for the IC50 in data set [1] and in data set [4] were 7.31 ± 1.9 µM and 2.95 ± 0.1 µM, respectively.
Turning to `O=C(CC(=O)C(F)(F)F)c1cccs1` [Thenoyltrifluoroacetone], the IC50 in data set [3] was 30 µM.
`Cc1c(C)c2c(c(C)c1OC(=O)CCC(=O)O)CC[C@@](C)(CCC[C@H](C)CCC[C@H](C)CCCC(C)C)O2` [α-Tocopheryl succinate]: in data set [3], the IC50 is 42 µM.
